We go through twelve molecules from US12344610B2, “APOL1 inhibitors and methods of use” (Maze Therapeutics, Inc., priority 2022, dated 2025).

For orientation: EC50 means the concentration needed to bring the measured effect to its halfway point.

Assay [1] concerns HEK293 clonal cell line overexpressing APOL1 G1. Description: APOL1 G1 HEK293 cell rescue assay (Example B3). In kind it is cell-based. The note with it: Homo sapiens, HEK293, HEK293 clonal line overexpressing APOL1 G1; geometric mean of at least 2 runs; † = single run; ¥ = concentration at 50% rescue estimated (no sigmoidal curve). The procedure, abridged: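 Rescue of cell death caused by APOL1 G1 overexpression was measured in a clonal HEK293 line. Compounds were tested in duplicate on one plate, and EC50s were geometric means across at least two runs on different days. Some values are estimated 50%-rescue concentrations where curve fitting failed.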

Assay [2] relates to Trypanosoma brucei Lister 427 VSG221 with APOL1 G2 recombinant protein. Put plainly: APOL1 G2 trypanosome cell rescue assay (Example B5). Type of assay: cell-based. The note with it: Trypanosoma brucei, 20 h, read-out: APOL1 G2 Trypanosome Rescue EC50, Trypanosoma brucei Lister 427 VSG221 with APOL1 G2 recombinant protein, 20 hours, CellTiter-Glo; geometric mean of at least 2 assay runs; † = single assay run. The procedure, abridged: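 Viability read by CellTiter-Glo luminescence after 20 h co-incubation (37° C, 5% CO2) of 250 trypanosomes/well in modified HMI-9 with test compound (duplicate 11-point, 2-fold dilutions, 0.4% DMSO) and APOL1 protein, […]. Protein: mature residues 28-398, E. coli inclusion-body refolded, tag cleaved, in DDM.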

With `N#Cc1ccc2c(c1)C1(CCN(CCOc3ccc4c(c3)CCNS4(=O)=O)CC1)C(=O)N2` [Compound 168, 1′-{2-[(1,1-dioxo-3,4-dihydro-2H-1λ^6,2-benzothiazin-6-yl)oxy]ethyl}-2-oxo-1,2-dihydrospiro[indole-3,4′-piperidine]-5-carbonitrile], the EC50 is over 7840 nM in assay [1] and 191 nM in assay [2].
For `CN1C(=O)Cc2cc(OCCN3CCC4(CC3)C(=O)Nc3ccc(C#N)cc34)cc(F)c21` [Compound 169, 1′-{2-[(7-fluoro-1-methyl-2-oxo-2,3-dihydro-1H-indol-5-yl)oxy]ethyl}-2-oxo-1,2-dihydrospiro[indole-3,4′-piperidine]-5-carbonitrile] the same measures were 1030 nM and 295 nM.
For `CC1(Oc2ncc(OCCN3CCC4(CC3)C(=O)Nc3ccc(Cl)cc34)cn2)COC1` [Compound 172, 5-chloro-1′-[2-({2-[(3-methyloxetan-3-yl)oxy]pyrimidin-5-yl}oxy)ethyl]-1,2-dihydrospiro[indole-3,4′-piperidin]-2-one] the same measures were 188 nM and 108 nM.
For `CCS(=O)(=O)C1(c2ccc(OCCN3CCC4(CC3)C(=O)Nc3ccc(C#N)cc34)cc2)COC1` [Compound 174, 1′-(2-{4-[3-(ethanesulfonyl)oxetan-3-yl]phenoxy}ethyl)-2-oxo-1,2-dihydrospiro[indole-3,4′-piperidine]-5-carbonitrile] the same measures were 253 nM and 137 nM.
As for `CS(=O)(=O)C1(c2ccc(OCCN3CCC4(CC3)C(=O)Nc3ccc(Cl)cc34)cc2)CCC1` [Compound 180, 5-chloro-1′-{2-[4-(1-methanesulfonylcyclobutyl)phenoxy]ethyl}-1,2-dihydrospiro[indole-3,4′-piperidin]-2-one], the EC50 is 74.9 nM in assay [1] and 13.3 nM in assay [2].
The like results for `CS(=O)(=O)C1(c2ccc(OCCN3CCC4(CC3)C(=O)Nc3ccc(C#N)cc34)cc2)CCC1` [Compound 181, 1′-{2-[4-(1-methanesulfonylcyclobutyl)phenoxy]ethyl}-2-oxo-1,2-dihydrospiro[indole-3,4′-piperidine]-5-carbonitrile] were, in that order, 194 nM and 70.7 nM.
The like results for `CS(=O)(=O)C1(c2ccc(OCCN3CCC4(CC3)C(=O)Nc3ccc(Cl)cc34)cc2)CC2(COC2)C1` [Compound 182, 5-chloro-1′-[2-(4-{6-methanesulfonyl-2-oxaspiro[3.3]heptan-6-yl}phenoxy)ethyl]-1,2-dihydrospiro[indole-3,4′-piperidin]-2-one] were, in that order, 225 nM and 138 nM.
Regarding `CS(=O)(=O)C1(c2ccc(OCCN3CCC4(CC3)C(=O)N(CC(F)(F)F)c3ccc(C#N)cc34)cc2)COC1` [Compound 184, 1′-{2-[4-(3-methanesulfonyloxetan-3-yl)phenoxy]ethyl}-2-oxo-1-(2,2,2-trifluoroethyl)-1,2-dihydrospiro[indole-3,4′-piperidine]-5-carbonitrile], the 50% effective concentration (EC50) in assay [1] was about 2500 nM; in assay [2] it was 585 nM.
For `CS(=O)(=O)C1(c2ccc(OCCN3CCC4(CC3)C(=O)N(CC(F)(F)F)c3ccc(Cl)cc34)cc2)COC1` [Compound 185, 5-chloro-1′-{2-[4-(3-methanesulfonyloxetan-3-yl)phenoxy]ethyl}-1-(2,2,2-trifluoroethyl)-1,2-dihydrospiro[indole-3,4′-piperidin]-2-one] the same measures were 231 nM and 140 nM.
For `CS(=O)(=O)C1(c2ccc(OCCN3CCC4(CC3)C(=O)Nc3ccc(Cl)cc34)cc2)CCOCC1` [Compound 188, 5-chloro-1′-{2-[4-(4-methanesulfonyloxan-4-yl)phenoxy]ethyl}-1,2-dihydrospiro[indole-3,4′-piperidin]-2-one] the same measures were 122 nM and 26.7 nM.
For `CN1C(=O)C2(CCN(CCOc3cc(F)c(C4(S(C)(=O)=O)COC4)c(F)c3)CC2)c2cc(C#N)ccc21` [Compound 189, 1′-{2-[3,5-difluoro-4-(3-methanesulfonyloxetan-3-yl)phenoxy]ethyl}-1-methyl-2-oxo-1,2-dihydrospiro[indole-3,4′-piperidine]-5-carbonitrile] the same measures were 148 nM and 61.4 nM.
`CC(C)(c1ccc(OCCN2CCC3(CC2)C(=O)Nc2ccc(C#N)cc23)cn1)S(C)(=O)=O` [Compound 191, 1′-(2-{[6-(2-methanesulfonylpropan-2-yl)pyridin-3-yl]oxy}ethyl)-2-oxo-1,2-dihydrospiro[indole-3,4′-piperidine]-5-carbonitrile]: the EC50 in assay [1] is 283 nM; in assay [2] it was 104 nM.
